These are literature values, as cited in US8246984B2, “Formulation of insoluble small molecule therapeutics in lipid-based carriers” (Rigel Pharmaceuticals, Inc., priority 2005, dated 2012).

For this data set the following is noted: transition temperature, gel to liquid crystalline phase.

`CCCCCCCCCCCCCC(=O)OC[C@H](COP(=O)([O-])OCC[N+](C)(C)C)OC(=O)CCCCCCCCCCCCC` [Dimyristoylphosphatidylcholine]: the Tm is 23 °C.

For the compound `CCCCCCCCCCCCCCCC(=O)OC[C@H](COP(=O)([O-])OCC[N+](C)(C)C)OC(=O)CCCCCCCCCCCCCCC` [Dipalmitoylphosphatidylcholine], the Tm was 41 °C.

On to `CCCCCCCCCCCCCCCCCC(=O)OC[C@H](COP(=O)([O-])OCC[N+](C)(C)C)OC(=O)CCCCCCCCCCCCCCCCC` [Distearoylphosphatidylcholine], for which the Tm was 55 °C.

Consider `CCCCCCCC/C=C\CCCCCCCC(=O)OC[C@H](COP(=O)([O-])OCC[N+](C)(C)C)OC(=O)CCCCCCC/C=C\CCCCCCCC` [Dioleoylphosphatidylcholine, 1,2-dioleoyl-sn-glycero-3-phosphocholine], for which the Tm was −22 °C.
